Measured values from ChEMBL document CHEMBL1201862, “PubChem BioAssay data set” (2004).
Calls of active or inactive are those of the source.

How the values were obtained:
[1] = biological target: 72 kDa type IV collagenase (Homo sapiens, UniProt P08253); experiment: Dose Response validation of uHTS RPN11 inhibitor hits using a MMP-2 Fluorescence assay.; assay type: functional
[2] = biological target: 26S proteasome non-ATPase regulatory subunit 14 (Homo sapiens, UniProt O00487); experiment: inhibition of proteasome subunit RPN11 – biochemical, fluorescence polarization, uHTS hits, confirmation (AID 602368); assay type: functional
Chain of 26S proteasome non-ATPase regulatory subunit 14 (O00487 whole entry): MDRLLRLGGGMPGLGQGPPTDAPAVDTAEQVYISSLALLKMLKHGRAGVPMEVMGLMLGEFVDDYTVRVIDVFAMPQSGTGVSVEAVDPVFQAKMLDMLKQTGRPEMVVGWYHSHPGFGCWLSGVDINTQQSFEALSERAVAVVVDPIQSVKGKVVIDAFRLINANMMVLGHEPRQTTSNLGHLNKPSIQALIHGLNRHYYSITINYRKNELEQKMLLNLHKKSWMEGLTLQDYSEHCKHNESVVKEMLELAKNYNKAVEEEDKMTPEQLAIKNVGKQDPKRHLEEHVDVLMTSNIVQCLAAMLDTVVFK

Prothrombin = Prothrombin (Bos taurus, UniProt P00735); experiment: thrombin inhibition, dose response, biochemical, fluorescence polarization, uHTS hits (AID 602369); assay type: functional
Caspase-6 = Caspase-6 (Homo sapiens, UniProt P55212); experiment: human caspase-6 inhibitors, dose response, biochemical, VEID-R110 fluorescence, cherry-pick (AID 720632)
Chain of Caspase-6 (P55212 24-179 limits assumed): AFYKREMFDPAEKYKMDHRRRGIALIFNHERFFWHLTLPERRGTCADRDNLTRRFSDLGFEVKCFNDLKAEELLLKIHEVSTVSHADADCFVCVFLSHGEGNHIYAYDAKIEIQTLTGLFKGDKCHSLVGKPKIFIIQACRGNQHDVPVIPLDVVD
Chain of Caspase-6 (P55212 194-293 limits assumed): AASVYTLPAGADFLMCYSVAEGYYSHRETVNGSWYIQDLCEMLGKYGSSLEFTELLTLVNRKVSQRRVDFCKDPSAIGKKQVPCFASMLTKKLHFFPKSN

HEK293 = experiment: HEK293T cell cytotoxicity, dose response, cytotoxicity control, ATP luminescence, cherry-pick samples (AID 687005); assay type: functional, cell-based; details: Homo sapiens;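 also: cells exposed to compound for 48 hours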
[3] = HEK293 Cytotoxicity Assay Measured in Cell-Based System Using Plate Reader - 7071-01_Inhibitor_Dose_CherryPick_Activity_Set2.; assay type: functional
[4] = HepG2 cell cytotoxicity, dose response, cytotoxicity control for Shn3 inhibitor project, CellTiter-Glo, cherry-picked (AID 624134); assay type: functional, cell-based
[5] = inhibitors of control Renilla luciferase reporter, dose response, counter-screen for Shn3 3'UTR targeting project, Clone20-Shn3RL cells, dual-Glo, cherry-pick, set 2 (AID 720724); assay type: functional, cell-based; details: Dual-Go Shn3RL
[6] = Shn3 3'UTR reporter inhibitors, dose response, cell-based, Clone20 osteoblasts, firefly luciferase, cherry-picked (AID 624132); assay type: functional;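 also: firefly luciferase luminescence from reporter carrying the Shn3 3'UTR in osteoblasts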
[7] = reduction of Shn3 3'UTR firefly luciferase signal, dose response, Schnurri-3 inhibitor project, cell-based, Clone20 osteoblasts, cherry-pick, set 2 (AID 720490); assay type: functional;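 also: actives lower the luminescence signal as inhibitors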
[8] = control 3'UTR Renilla luciferase suppression, dose response, counter-screen for Shn3 inhibitor project, cell-based, Clone20-Shn3RL, cherry-picked (AID 624133); assay type: functional
[9] = biological target: T1, Adenosylmethionine-8-amino-7-oxononanoate aminotransferase (Mycobacterium tuberculosis, UniProt P9WQ81); experiment: Mycobacterium tuberculosis BioA enzyme inhibitor Measured in Biochemical System Using Plate Reader - 2163-02_Inhibitor_Dose_CherryPick_Activity.; assay type: functional, Mycobacterium tuberculosis UT205
T1 sequence (P9WQ81 whole entry): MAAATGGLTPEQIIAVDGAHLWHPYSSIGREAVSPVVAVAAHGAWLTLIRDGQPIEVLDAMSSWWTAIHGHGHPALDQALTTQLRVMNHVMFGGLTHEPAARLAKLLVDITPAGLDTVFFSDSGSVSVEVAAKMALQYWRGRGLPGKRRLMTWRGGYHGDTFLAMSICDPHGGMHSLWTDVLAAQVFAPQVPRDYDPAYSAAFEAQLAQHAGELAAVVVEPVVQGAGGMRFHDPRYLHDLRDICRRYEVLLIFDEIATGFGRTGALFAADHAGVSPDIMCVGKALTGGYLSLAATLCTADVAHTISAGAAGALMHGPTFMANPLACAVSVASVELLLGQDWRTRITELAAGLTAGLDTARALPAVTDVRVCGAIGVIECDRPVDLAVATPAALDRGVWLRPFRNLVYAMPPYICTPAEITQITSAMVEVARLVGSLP

HeLa = experiment: HeLa cell cytotoxicity, dose response, cytotoxicity control, ATP luminescence, cherry-pick samples (AID 687004); assay type: functional, cell-based; details: Homo sapiens
Melanocortin receptor 4 = Melanocortin receptor 4 (Homo sapiens, UniProt P32245); assay type: functional, cell-based;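 also: Cell-based assay with luminescence read-out, confirmatory dose-response testing for agonist activity of biased ligands at MC4R; human U2OS cells with tagged receptor and beta-arrestin; potency of agonists that increase receptor coupling to beta-arrestin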
Chain of Melanocortin receptor 4 (P32245 whole entry): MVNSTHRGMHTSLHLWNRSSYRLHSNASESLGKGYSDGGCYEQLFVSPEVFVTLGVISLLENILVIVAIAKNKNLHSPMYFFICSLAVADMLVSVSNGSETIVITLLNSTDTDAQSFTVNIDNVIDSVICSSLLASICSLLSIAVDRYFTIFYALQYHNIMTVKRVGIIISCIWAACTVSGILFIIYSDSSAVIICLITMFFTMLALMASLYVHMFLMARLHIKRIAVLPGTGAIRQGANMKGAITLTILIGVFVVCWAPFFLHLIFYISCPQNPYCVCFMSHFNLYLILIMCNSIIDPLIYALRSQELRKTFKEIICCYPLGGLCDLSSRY

[10] = biological target: T2, Sentrin-specific protease 1 (Homo sapiens, UniProt Q9P0U3); experiment: potency of human SENP1 inhibitors, dose response, biochemical, kinetic FRET (AID 651697); assay type: functional; details: read-out: IC50_Mean
T2 sequence (Q9P0U3 whole entry, the tested form may be a part): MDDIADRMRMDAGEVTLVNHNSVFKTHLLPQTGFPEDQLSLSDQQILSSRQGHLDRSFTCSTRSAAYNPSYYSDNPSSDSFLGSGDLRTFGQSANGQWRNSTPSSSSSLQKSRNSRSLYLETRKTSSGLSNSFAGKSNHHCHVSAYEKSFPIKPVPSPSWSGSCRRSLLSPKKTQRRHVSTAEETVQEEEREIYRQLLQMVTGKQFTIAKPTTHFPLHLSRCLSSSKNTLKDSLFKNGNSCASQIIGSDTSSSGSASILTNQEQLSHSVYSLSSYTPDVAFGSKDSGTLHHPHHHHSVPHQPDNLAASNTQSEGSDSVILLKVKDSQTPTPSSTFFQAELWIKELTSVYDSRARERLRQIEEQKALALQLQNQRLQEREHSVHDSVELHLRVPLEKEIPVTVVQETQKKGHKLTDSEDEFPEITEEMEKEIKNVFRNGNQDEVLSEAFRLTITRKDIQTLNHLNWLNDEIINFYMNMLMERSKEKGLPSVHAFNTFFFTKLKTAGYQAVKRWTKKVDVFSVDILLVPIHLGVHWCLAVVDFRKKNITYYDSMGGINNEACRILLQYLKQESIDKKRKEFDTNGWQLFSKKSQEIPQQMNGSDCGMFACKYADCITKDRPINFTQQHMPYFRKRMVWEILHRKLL

[11] = biological target: T2, Sentrin-specific protease 1; experiment: Dose response confirmation of small molecule inhibitors of the catalytic domain of the SUMO protease, SENP1 in a FRET assay.; assay type: functional; details: read-out: IC50_Mean
[12] = biological target: Oxysterols receptor LXR-beta (Homo sapiens, UniProt P55055); assay type: functional, cell-based;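 also: agonist activity at LXR measured by a cell-based luminescence readout across a dose range, run as a counterscreen for daf-12 agonists; HEK293 cells with Gal4-LXR fusion and GAL4-driven luciferase reporter; potency for activation of Gal4-LXR reporter so compounds are agonists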
Chain of Oxysterols receptor LXR-beta (P55055 whole entry, the tested form may be a part): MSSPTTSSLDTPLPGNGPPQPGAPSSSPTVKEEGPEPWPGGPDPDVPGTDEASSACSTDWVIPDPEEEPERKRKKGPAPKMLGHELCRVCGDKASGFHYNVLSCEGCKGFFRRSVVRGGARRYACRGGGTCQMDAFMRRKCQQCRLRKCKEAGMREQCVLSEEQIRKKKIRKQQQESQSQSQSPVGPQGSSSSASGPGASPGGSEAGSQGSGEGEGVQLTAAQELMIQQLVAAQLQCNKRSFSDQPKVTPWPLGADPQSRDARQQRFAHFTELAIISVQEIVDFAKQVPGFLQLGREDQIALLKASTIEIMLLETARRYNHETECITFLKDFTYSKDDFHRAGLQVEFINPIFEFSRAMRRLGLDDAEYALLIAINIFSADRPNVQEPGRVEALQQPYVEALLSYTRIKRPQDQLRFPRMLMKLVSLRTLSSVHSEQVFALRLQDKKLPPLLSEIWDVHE

[13] = inhibitors of non-replicating M. tuberculosis, dose response, luciferase, dry powder (AID 651619); assay type: functional; details: Mycobacterium tuberculosis
[14] = cytotoxicity in HeLa cells, dose response, cytotoxicity control, cell-based, plate reader, dry powder (AID 651946); assay type: functional
[15] = inhibitors of non-replicating M. tuberculosis, dose response, luciferase, dry powder (AID 651620); assay type: functional; details: Mycobacterium tuberculosis
[16] = biological target: 5-hydroxytryptamine receptor 2A (Mus musculus, UniProt P35363); assay type: functional, cell-based;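 also: CHO-K1 cells with tagged receptor and beta-arrestin; agonist potency measured as compound-induced activation of the receptor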
Chain of 5-hydroxytryptamine receptor 2A (P35363 whole entry): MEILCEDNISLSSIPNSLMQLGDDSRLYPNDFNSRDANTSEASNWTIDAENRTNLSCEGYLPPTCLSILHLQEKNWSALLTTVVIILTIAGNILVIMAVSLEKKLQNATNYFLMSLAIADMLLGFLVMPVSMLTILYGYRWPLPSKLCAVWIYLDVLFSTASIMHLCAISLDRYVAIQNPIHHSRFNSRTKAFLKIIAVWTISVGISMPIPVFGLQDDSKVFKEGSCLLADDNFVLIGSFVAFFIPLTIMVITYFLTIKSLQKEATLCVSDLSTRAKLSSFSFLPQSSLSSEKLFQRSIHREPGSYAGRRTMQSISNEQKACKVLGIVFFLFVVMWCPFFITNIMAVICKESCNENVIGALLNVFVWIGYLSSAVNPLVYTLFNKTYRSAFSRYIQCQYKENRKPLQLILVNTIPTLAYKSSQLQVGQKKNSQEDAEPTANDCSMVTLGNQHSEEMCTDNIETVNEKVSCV

Mu-type opioid receptor = Mu-type opioid receptor (Homo sapiens, UniProt P35372); assay type: functional, cell-based;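 also: U2OS cells with beta-arrestin recruitment to OPRM1 by beta-gal complementation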
Chain of Mu-type opioid receptor (P35372 whole entry): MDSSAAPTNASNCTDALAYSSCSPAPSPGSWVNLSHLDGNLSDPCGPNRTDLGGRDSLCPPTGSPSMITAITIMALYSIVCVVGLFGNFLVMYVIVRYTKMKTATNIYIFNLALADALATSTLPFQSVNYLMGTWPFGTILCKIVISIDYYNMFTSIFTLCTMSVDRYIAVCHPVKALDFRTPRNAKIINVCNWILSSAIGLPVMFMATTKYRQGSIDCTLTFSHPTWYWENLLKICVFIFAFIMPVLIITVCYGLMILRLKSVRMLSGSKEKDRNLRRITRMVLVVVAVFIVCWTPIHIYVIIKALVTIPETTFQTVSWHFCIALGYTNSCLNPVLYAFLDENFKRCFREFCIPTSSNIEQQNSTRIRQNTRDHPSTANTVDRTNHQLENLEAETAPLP

[17] = biological target: FAD-linked sulfhydryl oxidase ALR (Homo sapiens, UniProt P55789); experiment: inhibitors of human ALR sulfhydryl oxidase, dose response, biochemical, H2O2 detection, luminescence, cherry-pick (AID 493248)
Chain of FAD-linked sulfhydryl oxidase ALR (P55789 whole entry): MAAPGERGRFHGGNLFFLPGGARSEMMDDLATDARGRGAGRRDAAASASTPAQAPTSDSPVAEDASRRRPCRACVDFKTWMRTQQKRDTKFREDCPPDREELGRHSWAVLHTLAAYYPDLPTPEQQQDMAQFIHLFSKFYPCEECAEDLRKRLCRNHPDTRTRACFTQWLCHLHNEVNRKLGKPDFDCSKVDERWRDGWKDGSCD

NS3 = NS3 (Hepatitis C virus, UniProt A3EZJ3); experiment: HCV NS3 helicase inhibitor potency, dose response, biochemical, fluorescence polarization, ChemBridge library (AID 743264)
Chain of NS3 (A3EZJ3 whole entry): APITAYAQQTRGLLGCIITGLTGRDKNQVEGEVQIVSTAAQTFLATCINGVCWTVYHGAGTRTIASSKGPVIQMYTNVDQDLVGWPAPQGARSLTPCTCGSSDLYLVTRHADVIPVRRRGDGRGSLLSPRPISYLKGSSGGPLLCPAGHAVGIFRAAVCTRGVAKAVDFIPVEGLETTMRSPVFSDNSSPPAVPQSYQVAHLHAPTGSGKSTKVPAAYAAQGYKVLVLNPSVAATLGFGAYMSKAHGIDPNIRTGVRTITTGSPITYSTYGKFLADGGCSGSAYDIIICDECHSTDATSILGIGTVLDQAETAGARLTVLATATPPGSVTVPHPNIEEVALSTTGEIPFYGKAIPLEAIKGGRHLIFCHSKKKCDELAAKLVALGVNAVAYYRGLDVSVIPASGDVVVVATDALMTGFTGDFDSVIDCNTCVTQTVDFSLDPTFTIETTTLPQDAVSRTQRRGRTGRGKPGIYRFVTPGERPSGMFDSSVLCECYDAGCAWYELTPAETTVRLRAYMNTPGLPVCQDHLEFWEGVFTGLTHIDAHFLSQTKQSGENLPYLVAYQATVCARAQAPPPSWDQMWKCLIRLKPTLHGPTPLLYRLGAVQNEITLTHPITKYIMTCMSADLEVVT

[18] = CTGF mRNA reduction under YAP1 overexpression, dose response, mechanism study for YAP1 pathway inhibitor project, DLD1 cells, RT-qPCR, cherry-pick (AID 1053127); assay type: functional, cell-based; details: DLD-1
Protein Wnt-3a = Protein Wnt-3a (Mus musculus, UniProt P27467); experiment: SAR analysis of small molecule antagonists of Gli-SUFU in a Wnt3a luminescent reporter assay.; assay type: functional
Chain of Protein Wnt-3a (P27467 whole entry): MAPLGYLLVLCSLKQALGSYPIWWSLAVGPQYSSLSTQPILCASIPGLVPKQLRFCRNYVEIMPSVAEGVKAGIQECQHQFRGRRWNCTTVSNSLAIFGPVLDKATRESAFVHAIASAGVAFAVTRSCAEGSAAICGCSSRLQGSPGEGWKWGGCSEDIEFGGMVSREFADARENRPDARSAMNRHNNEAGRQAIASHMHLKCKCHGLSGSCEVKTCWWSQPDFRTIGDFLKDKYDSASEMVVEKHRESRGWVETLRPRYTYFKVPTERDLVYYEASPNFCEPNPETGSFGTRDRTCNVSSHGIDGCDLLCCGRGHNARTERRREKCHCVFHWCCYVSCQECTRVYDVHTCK

Chain of 72 kDa type IV collagenase (P08253 whole entry): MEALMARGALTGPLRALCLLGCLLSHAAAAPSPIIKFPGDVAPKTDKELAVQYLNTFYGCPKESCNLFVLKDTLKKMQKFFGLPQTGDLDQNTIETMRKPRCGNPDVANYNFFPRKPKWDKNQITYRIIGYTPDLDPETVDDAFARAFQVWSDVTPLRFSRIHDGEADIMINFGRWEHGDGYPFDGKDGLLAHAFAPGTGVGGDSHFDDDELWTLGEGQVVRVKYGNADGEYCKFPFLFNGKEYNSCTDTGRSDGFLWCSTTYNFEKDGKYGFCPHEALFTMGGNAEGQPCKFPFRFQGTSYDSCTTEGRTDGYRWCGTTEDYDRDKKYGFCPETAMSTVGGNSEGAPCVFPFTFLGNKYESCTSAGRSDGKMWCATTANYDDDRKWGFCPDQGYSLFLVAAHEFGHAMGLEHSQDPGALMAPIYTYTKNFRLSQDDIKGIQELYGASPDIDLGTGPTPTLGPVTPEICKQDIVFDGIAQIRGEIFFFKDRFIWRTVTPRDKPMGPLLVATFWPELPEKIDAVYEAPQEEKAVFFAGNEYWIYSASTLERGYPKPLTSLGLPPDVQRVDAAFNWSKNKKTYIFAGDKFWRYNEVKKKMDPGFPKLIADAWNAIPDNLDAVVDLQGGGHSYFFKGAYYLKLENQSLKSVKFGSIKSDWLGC

CN(CC(=O)Nc1ccc(F)c(F)c1F)C(=O)CCc1nc(O)c2c3c(sc2n1)CCCC3
IC50 [1]: > 100 µM (inactive)
IC50 [2]: 46.5 µM (active)
IC50 (Prothrombin): 61.3 µM (active)
AC50 (Caspase-6): 18.6 µM (active)

C[C@@H]1CN([C@@H](C)CO)C(=O)Cc2cc(NC(=O)c3ccncc3)ccc2O[C@H]1CN(C)Cc1ccncc1
AC50 (HEK293): > 52 µM (inactive)
AC50 [3]: > 52 µM (inactive)

Cc1ccc2nc(NC(=O)C3CCN(S(=O)(=O)c4ccc5c(c4)oc(=O)n5C)CC3)sc2c1
AC50 [4]: 54.7 µM (active)
AC50 [5]: 29.1 µM (active)
AC50 [6]: 3.35 µM (active)
AC50 [7]: 7.23 µM (active)
AC50 [8]: 11.1 µM (active)

O=C(C1CCOCC1)N1CC[C@@H]2[C@H]1c1cc(Br)ccc1N[C@@H]2CO
AC50 [9]: 4.59 µM (active)
AC50 (HeLa): > 52 µM (inactive)

CCOc1ccc(Cn2c3ccc(OC)cc3c3nc4ccccc4nc32)cc1OC
EC50 (Melanocortin receptor 4): > 89.2 µM (inactive)
IC50 [10]: 12.8 µM (active)
IC50 [11]: 6.92 µM (active)

Nc1nn(-c2cccc(F)n2)cc1-c1ccccc1
EC50 [12]: > 67.5 µM (inactive)

Clc1ccc(-c2nnc(SCc3cn(-c4ccccc4)nn3)o2)cc1
IC90 [13]: 1 µM (active)
AC50 [14]: > 52 µM (inactive)
IC90 [15]: 1 µM (active)

COc1ccccc1C(=O)NCCN1CCN(c2ccccc2)CC1
EC50 [16]: 0.662 µM (active)
EC50 (Mu-type opioid receptor): 92.5 µM (inactive)
AC50 [17]: 3.86 µM (active)

Cc1ccc(C(=O)O)cc1-n1c(C)ccc1C
IC50 (NS3): 7.6 µM (inactive)

O=C(Nc1ccc(C(F)(F)F)cc1)Nc1ccc2c(c1)[C@H]1C[C@H](CC(=O)N3CCc4ccccc4C3)O[C@@H](CO)[C@H]1O2
AC50 [18]: > 26 µM (inactive)

CN(C)c1cc(NC(=O)c2cccc(F)c2)ncn1
IC50 (Protein Wnt-3a): > 21.8 µM (inactive)
